Read-outs that look alike come from different tables or passages of the source.
Tested on: IPOHE (Ipomoea hederacea, ivyleaf morningglory)
Test: Postemergence foliar-applied mixtures, direct seeded rice, greenhouse
Assay type: in vivo, Ipomoea hederacea Jacq.
Details: post-emergence
Procedure, shortened: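 Greenhouse plants in loam/grit soil (about 29/26°C, 14 h photoperiod) sprayed post-emergence at first to fourth true leaf stage at 187 L/ha. Compound A dosed as acid equivalent, partner PSII herbicides as active ingredient, alone and in mixtures, in spray solutions containing 1.25% crop oil concentrate.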

COc1c(Cl)ccc(-c2nc(C(=O)O)c(Cl)c(N)c2F)c1F [Compound A Acid, 4-amino-3-chloro-6-(4-chloro-2-fluoro-3-methoxyphenyl)-5-fluoropyridine-2-carboxylic acid]
pest or weed control at 19.4 g/ha (480 h, 19.4 g ae/ha, 20 DAA, read-out: Visual Weed Control (%) Obs): 15%
pest or weed control at 21.2 g/ha (480 h, 21.2 g ae/ha, 20 DAA, read-out: Visual Weed Control (%) Obs): 35%
pest or weed control at 42.4 g/ha (480 h, 42.4 g ae/ha, 20 DAA, read-out: Visual Weed Control (%) Obs): 55%
pest or weed control at 4.38 g/ha (504 h, 4.38 g ae/ha, 21 DAA, read-out: Visual Weed Control (%) Obs): 15%
pest or weed control at 8.75 g/ha (504 h, 8.75 g ae/ha, 21 DAA, read-out: Visual Weed Control (%) Obs): 35%

COc1c(Cl)ccc(-c2nc(C(=O)OCc3ccccc3)c(Cl)c(N)c2F)c1F [Compound A Benzyl Ester, benzyl ester of 4-amino-3-chloro-5-fluoro-6-(4-chloro-2-fluoro-3-methoxy-phenyl)pyridine-2-carboxylic acid]
pest or weed control at 32 g/ha (480 h, read-out: Visual Weed Control (%) Obs, 32 g ae/ha, 20 DAA): 55%
pest or weed control at 4.38 g/ha (504 h, read-out: Visual Weed Control (%) Obs, 4.38 g ae/ha, 21 DAA): 0%
pest or weed control at 8 g/ha (504 h, read-out: Visual Weed Control (%) Obs, 8 g ae/ha, 21 DAA): 10%
pest or weed control at 8.75 g/ha (504 h, read-out: Visual Weed Control (%) Obs, 8.75 g ae/ha, 21 DAA): 15%
pest or weed control at 16 g/ha (504 h, read-out: Visual Weed Control (%) Obs, 16 g ae/ha, 21 DAA): 25%
pest or weed control at 17.5 g/ha (504 h, read-out: Visual Weed Control (%) Obs, 17.5 g ae/ha, 21 DAA): 38%
pest or weed control at 17.5 g/ha (504 h, read-out: Visual Weed Control (%) Obs, 17.5 g ae/ha, 21 DAA (second set, r27-r31)): 38%
pest or weed control at 32 g/ha (504 h, read-out: Visual Weed Control (%) Obs, 32 g ae/ha, 21 DAA): 60%
pest or weed control at 35 g/ha (504 h, read-out: Visual Weed Control (%) Obs, 35 g ae/ha, 21 DAA): 55%

CCC(=O)Nc1ccc(Cl)c(Cl)c1 [Propanil, N-(3,4-dichlorophenyl)propanamide, reference compound]
pest or weed control at 3360 g/ha (480 h, 3360 g ai/ha, 20 DAA, read-out: Visual Weed Control (%) Obs): 40%
pest or weed control at 420 g/ha (504 h, 420 g ai/ha, 21 DAA, read-out: Visual Weed Control (%) Obs): 0%
pest or weed control at 840 g/ha (504 h, 840 g ai/ha, 21 DAA, read-out: Visual Weed Control (%) Obs): 0%
pest or weed control at 1680 g/ha (504 h, 1680 g ai/ha, 21 DAA, read-out: Visual Weed Control (%) Obs): 0%

— patent US8912121B2, “Herbicidal compositions comprising 4-amino-3-chloro-5-fluoro-6-(4-chloro-2-fluoro-3-methoxyphenyl)pyridine-2-carboxylic acid or a derivative thereof and certain PS II inhibitors” (Dow Agrosciences LLC, priority 2012, dated 2014)
